Columns and labels:
Dectin-1 [1] = test: Co-IP of APP/β-amyloid and Dectin-1 in brain lysates; format: binding, mice; details: lysates from WT and Aβ42 brain tissues, Protein A magnetic beads
Method: The triggering receptor expressed on myeloid cells 2 (Trem2) is a microglial surface receptor genetically linked to the risk of AD [28]. Most Aβ functions in microglia are thought to be mediated by its binding to Trem2 [29]. […] Trem2 is the currently reported microglia receptor that can directly bind to Aβ, and we used it as a positive control in this experiment. […] Next, we performed a protein interaction analysis using Co-IP. APP/β-amyloid was added to Protein A magnetic beads as a bait protein, and lysates from WT and Aβ42 brain tissues were added. […] In turn, we could also capture the expression of APP/β-amyloid protein using Dectin-1 as a bait protein (Figure 6C). […] Therefore, we used surface plasmon resonance (SPR) to identify direct Aβ42-Dectin-1 interactions at the molecular level. […] Nuclei are counterstained with DAPI (blue) [scale bar = 5 μm]. (B) Bio-Aβ42 is added to streptavidin-agarose beads and incubated. Biotin alone was used as control. Lysates prepared from BV2 cells were added to beads. The eluent was loaded onto a polyacrylamide gel for western blot analysis. Total lysates were used as input controls. Trem2 was used as a positive control. (C) The Dectin-1-APP/ β-amyloid interaction is analyzed by co-immunoprecipitation in the brains of WT and model mice. […] Mean KD constant derived from five separate experiments. (E) 3D binding model of dectin-1 and amyloid beta peptide. […]

Dectin-1 [2] = test: Pull-down with Bio-Aβ42 from BV2 lysates; format: binding; details: 100 µL of 20 μM biotinylated Aβ42 on streptavidin-agarose beads, lysate 24 h at 4°C; biotin control; Trem2 positive control
Method: Lysates prepared from microglia cells and mouse brain tissues were then added to the streptavidin-agarose beads with biotinylated- Aβ42. The mixture was incubated for 24h at 4°C under gentle rocking. Samples were then spun and washed 3 times. Then, 5x loading buffer was added in the elution buffer and boiled for 10min, and the samples were used for western blot analysis. Total lysates were used as an input control.
Nuclei are counterstained with DAPI (blue) [scale bar = 5 μm]. (B) Bio-Aβ42 is added to streptavidin-agarose beads and incubated. Biotin alone was used as control. Lysates prepared from BV2 cells were added to beads. The eluent was loaded onto a polyacrylamide gel for western blot analysis. Total lysates were used as input controls. Trem2 was used as a positive control. (C) The Dectin-1-APP/ β-amyloid interaction is analyzed by co-immunoprecipitation in the brains of WT and model mice. […] Mean KD constant derived from five separate experiments. (E) 3D binding model of dectin-1 and amyloid beta peptide. The backbones of dectin-1 and amyloid beta peptide are shown as cartoons. The residues in dectin-1 are shown as cyan sticks, whereas the residues in amyloid beta-peptide are shown as wheat sticks. The hydrogen bonds are depicted as red dashed lines and the salt bridges are depicted as blue dashed lines.

Syk = Syk phosphorylation in BV2 cells (western blot); format: cell-based; details: 20 µM Bio-Aβ42, 45 min
From the text: (§1) GAPDH was used as loading control. […] GAPDH was used as loading control. […] GAPDH was used as loading control. […] GAPDH was used as loading control.

BV2 cells = test: Microglia phagocytosis and clearance of FITC-Aβ42 (flow cytometry); format: cell-based; details: 20 μM FITC-Aβ42, 2 h (phagocytosis) then 24 h in FITC-Aβ-free medium (clearance), Dectin-1-deficient BV2 cells
Method: After incubation, the medium containing FITC-Aβ was removed, and the cells were washed three times with 1xPBS. BV2 cells were collected by centrifugation at 3000rpm for 5min, and resuspended in ice-cold 1xPBS solution. […] Cells were cultured in the FITC-Aβ-free medium for another 24 hours. Collect the cells and detect the level of intracellular Aβ by flow cytometry.

Syk/NF-κB = Syk/NF-κB activation in BV2 cells (western blot); format: cell-based; details: Aβ42-stimulated BV2 cells, siRNA targeting Dectin-1
From the text: as §1

PC12 cells = test: PC12 damage by BV2-conditioned medium; format: cell-based; details: medium of Dectin-1-deficient BV2 cells exposed to Aβ42, PC12 treated 24 h
Method: To test cellular apoptosis, TUNEL assay was performed (C1098, Beyotime, Shanghai, China). For cells: Properly treated BV2 cells were fixed with 4% PFA for 20 min and washed with PBST for 3 times. Then cells were incubated with TUNEL test solution (5 μl of TdT enzyme and 45 μl of fluorescent labeling solution) under dark condition for 1h. After washing with 1xPBS for three times, nuclei were stained with DAPI. The apoptotic cells (green fluorescence) were observed under fluorescent microscopy and calculated as a percentage of the total number of cells. For brain tissue: Processed tissue samples were incubated with 50 μl of TUNEL reaction mixture for 1h at 37℃ under dark conditions. Color developed in DAB coloring solution. Apoptosis index (brown color) in the hippocampus area were measured using this formula: apoptosis index (%) = (apoptotic neurons / total neurons) × 100%.

[3] = system: Tnfa, Il1b, IL-6, Cox2, and Inos; test: mRNA levels of inflammatory genes (real-time qPCR); format: cell-based; details: Aβ42-stimulated, normalized to GAPDH
Method: Total RNA was isolated from cultured BV2 cells and brain tissues using TRIzol reagent (Thermo Fisher, 15596026) by standard techniques. Total RNA concentration was measured by a spectrophotometer. Then, PrimeScript RT-reagent Kit (Takara, RR037A) was used for cDNA synthesis. Real-time PCR amplification reactions were carried out on CFX96 Touch Real-Time PCR Detection System (Bio-Rad) using TB Green Premix Ex Taq II (Takara; RR820A). Quantification of the mRNA expression was calculated by […] method with GAPDH normalization. Primer sequences used in this study were presented in Supplementary Table S2.
(§2) Figure 5 Dectin-1 interference prevents Aβ42-induced inflammatory response in BV2 cells. (A) Time-course of Dectin-1-Syk interaction. […] (B) HEK-293T cells were transfected with Flag-tagged Dectin-1 (Flag-D1) and HA-tagged Dectin-1 (HA-D1). […] (C) Time-course of Syk phosphorylation. […] Total proteins were extracted and probed for p-Syk and Syk levels. GAPDH was used as loading control. (D) Dose-course of Syk phosphorylation. […] Total proteins were used to measure p-Syk and Syk levels. GAPDH was used as loading control. (E) Determination of Dectin-1 interference efficiency in BV2 cells. Total proteins were extracted and probed for p-Syk and Syk levels. […] (H) TNFα release in cell supernatant measured by ELISA. (I) IL-1β release in in cell supernatant measured by ELISA. […]

NF-κB p65 = test: p65 nuclear translocation in BV2 cells (immunofluorescence); format: cell-based; details: Aβ42-stimulated BV2 cells, siRNA targeting Dectin-1
Method: Properly treated BV2 cells were fixed in 4% paraformaldehyde (PFA) for 15-20 min. The BV2 cells were then incubated with 1x PBS containing 0.1% Triton X-100 (PBST) for 20 min to increase membrane permeability. After block with 1% BSA for 1 h at room temperature, the primary antibody (1:100) was added and incubate overnight at 4 °C. Next day, the cells were washed three times with 1xPBS and incubated with fluorophore conjugated secondary antibody (1:500) for 2h. Finally, one drop of antifade mounting medium with DAPI (P0131, Beyotime) was added to stain the Nuclei. Then, sections were observed and analyzed under a Nikon A1 confocal microscope.
as §2, with “cells.” for “cells. Total proteins were extracted and probed for p-Syk and Syk levels.”

TNF-α and IL-1β = TNF-α and IL-1β release from BV2 cells (ELISA); format: cell-based; details: Aβ42-stimulated BV2 cells, cell supernatant
Method: After behavior test, blood samples from each group of mice were collected. Serum was obtained by centrifuge at 12000 rpm for 10 min and the levels of TNF-α and IL-1β were measured using ELISA kits. Briefly, samples were added to the wells with a biotin-conjugated antibody specific to TNF-α or IL-1β. Then, Avidin conjugated to Horseradish Peroxidase (HRP) was added to each microplate well and incubated. […] Finally, stop solution was added to stop the reaction and the color change were measured at a wavelength of 450 nm by a microplate reader. The concentration of TNF-α or IL-1β in the samples were then determined by comparing the OD value of the samples to the standard curve.
as §2, with “cells.” for “cells. Total proteins were extracted and probed for p-Syk and Syk levels.”

In the case of “APP/β-amyloid: APP/β-amyloid protein used as bait with lysates from WT and Aβ42 brain tissues”, the “binding to Dectin-1 (co-IP)” value (Dectin-1 [1]) is reported as “binds to the Dectin-1 protein in these lysates”.
In the case of “Bio-Aβ42: biotin-labeled Amyloid beta peptide, obtained from GL Biochem”, the “binding to Dectin-1 (pull-down/Co-IP)” value (Dectin-1 [2]) is reported as “Co-IP analysis further confirmed this result” and the “Syk phosphorylation by Bio-Aβ42” value (Syk) is reported as “retained the Dectin-1 activating activity of Aβ42, as evidenced by the increased phosphorylation of Syk”.
With “FITC-Aβ42: Aβ42 linked with a FITC label” the “phagocytosis and clearance of FITC-Aβ42, effect of Dectin-1 deficiency” value (BV2 cells) was “did not affect the fluorescence intensity of Aβ”.
For “siD1: siRNA targeting Dectin-1 gene; sense 5’-GGAGAAAUCCAGAGGAGAATT-3’, antisense 5’-UUCUCCUCUGGAUUUCUCCTT-3’ (chemistry not given here)”, the “Syk/NF-κB activity after Dectin-1 knockdown” value (Syk/NF-κB) was “this increased activity of Syk/NF-κB was not seen in Dectin-1-deficient BV2 cells”, the “PC12 damage by medium of siD1-treated microglia” value (PC12 cells) was “failed to damage PC12 cells” and the “mRNA levels of inflammatory genes Tnfa, Il1b, IL-6, Cox2, Inos” value [3] was “significantly reversed”. For the same substance, the “p65 nuclear translocation after Dectin-1 knockdown” value (NF-κB p65) was “remarkably inhibited Aβ42-induced p65 nuclear translocation” and the “TNF-α and IL-1β release after Dectin-1 knockdown” value (TNF-α and IL-1β) was “decreased the release of the inflammatory factors TNF-α and IL-1β”.

— PMC10321287, “β-amyloid binds to microglia Dectin-1 to induce inflammatory response in the pathogenesis of Alzheimer's disease” (International Journal of Biological Sciences, 2023)
